According to ChEMBL document CHEMBL4190327, “Substituted methoxybenzyl-sulfonyl-1H-benzo[d]imidazoles evaluated as effective H+/K+-ATPase inhibitors and anti-ulcer therapeutics” (Eur J Med Chem, 2017):

Legend:
Erythrocyte [1] = assay: Anti-inflammatory activity in human RBC assessed as membrane stabilization relative to control; type: functional; design: concentration or dose not given beside the values
Erythrocyte [2] = assay: Anti-inflammatory activity in human RBC assessed as membrane stabilization; type: functional, cell-based
[3] = Inhibition of hydrogen potassium ATPase in goat stomach mucosal membrane assessed as decrease in inorganic phosphate production using ATP as substrate after 10 to 15 mins by spectrophotometric analysis; type: cell membranes, Capra hircus
Capra hircus = species: Capra hircus; assay: Inhibition of hydrogen potassium ATPase in goat stomach mucosal membrane assessed as decrease in inorganic phosphate production using ATP as substrate after 10 to 15 mins by spectrophotometric analysis relative to omeprazole; type: cell membranes; design: concentration or dose not given beside the values

Row | Compound | IC50 (Erythrocyte [2]) [nM] | IC50 [3] [nM] | Ki [3] [nM] | inhibition (Capra hircus) [%] | Activity (Erythrocyte [1]) [%]
1 | O=C(O)Cc1ccccc1Nc1c(Cl)cccc1Cl [DICLOFENAC] | 942 | – | – | – | 82.24
2 | COc1ccc2[nH]c(S(=O)(=O)Cc3ccc(OCc4nccc(OCC(F)(F)F)c4C)c(OC)c3)nc2c1 | 1760 | 1460 | 25 to 1240 | 72 | 71.58
3 | COc1ccc2[nH]c([S+]([O-])Cc3ncc(C)c(OC)c3C)nc2c1 (centres undefined) [OMEPRAZOLE] | – | 980 to 1010 | – | 82.1 | –
4 | COc1cc(CS(=O)(=O)c2nc3cc(OC(F)F)ccc3[nH]2)ccc1OCc1ncc(C)c(OC)c1C | 1420 | 1360 | 25 to 1240 | 73.2 | 73.56
5 | COc1cc(CS(=O)(=O)c2nc3ccccc3[nH]2)ccc1OCc1nccc(OCC(F)(F)F)c1C | 1310 | 1290 | 25 to 1240 | 74.9 | 74.21
6 | COc1cc(CS(=O)(=O)c2nc3ccccc3[nH]2)ccc1OCc1ncc(C)c(OC)c1C | 1820 | 1680 | 25 to 1240 | 70.5 | 70.41
7 | COc1cc(CS(=O)(=O)c2nc3cc(OC(F)F)ccc3[nH]2)ccc1OCc1nccc(OCC(F)(F)F)c1C | 1880 | 1660 | 25 to 1240 | 70.6 | 70.28
8 | COc1ccc2[nH]c(S(=O)(=O)Cc3ccc(OCc4nccc(OC)c4OC)c(OC)c3)nc2c1 | 898 | 918 | 25 to 1240 | 78.2 | 78.42
9 | COc1ccc2[nH]c(S(=O)(=O)Cc3ccc(OCc4ncc(C)c(OC)c4C)c(OC)c3)nc2c1 | 1210 | 1150 | 25 to 1240 | 76.3 | 76.23

Continued by falling IC50 (Erythrocyte [2]), values first:

Row | IC50 (Erythrocyte [2]) [nM] | IC50 [3] [nM] | Ki [3] [nM] | inhibition (Capra hircus) [%] | Compound | Activity (Erythrocyte [1]) [%]
10 | 817 | 814 | 25 to 1240 | 80.2 | COCCCOc1ccnc(COc2ccc(CS(=O)(=O)c3nc4cc(OC)ccc4[nH]3)cc2OC)c1C | 79.41
11 | 355 | 355 | 25 to 1240 | 81 | COCCCOc1ccnc(COc2ccc(CS(=O)(=O)c3nc4ccccc4[nH]3)cc2OC)c1C | 88.45
12 | 212 | 228 | 25 to 1240 | 92 | COc1cc(CS(=O)(=O)c2nc3ccccc3[nH]2)ccc1OCc1nccc(OC)c1OC | 91.12
13 | 186 | 198 | 25 to 1240 | 94.4 | COc1cc(CS(=O)(=O)c2nc3cc(OC(F)F)ccc3[nH]2)ccc1OCc1nccc(OC)c1OC | 94.11
14 | 142 | 124 | 25 to 1240 | 96.3 | COCCCOc1ccnc(COc2ccc(CS(=O)(=O)c3nc4cc(OC(F)F)ccc4[nH]3)cc2OC)c1C | 96.42
